Laboratory results as given in patent US20040132731A1, “Novel combination” (priority 2002, published 2004).

Test system: spontaneously hypertensive rat (SHR)
Test: Animal study: change in mean arterial pressure in anaesthetised spontaneously hypertensive rats
Format: in vivo
Settings: anaesthetised male SHR; for Change in mean arterial pressure from vehicle: n=6/group, infusion at 0.5 mL/h, candesartan 0.02 μg/kg/min, PDE5 inhibitor 15.61 μg/kg/min, combination 15.61 μg/kg/min+0.02 μg/kg/min; for fall in MAP: text restatement of the table, combination vs sum of the two individual effects p=0.058
Experimental: The spontaneously hypertensive rat (SHR) is a widely used model of human hypertension. Anaesthetised male SHRs (250-450 g) were surgically prepared for the measurement of systolic, diastolic and mean arterial pressure. Cannulae were inserted into the jugular veins and carotid artery. The trachea was also cannulated to facilitate respiration. Following a 60 min post-surgical stabilisation period, arterial blood pressure and heart rate were recorded via a pressure transducer and PoNeMah data acquisition system.
Solutions of candesartan (0.02, μg/kg/min), PDE5 inhibitor (15.61 μg/kg/min) and a combination of PDE5 inhibitor and candesartan (15.61 μg/kg/min+0.02, μg/kg/min) were infused as appropriate at a rate of 0.5 mL/h. Control animals received compound vehicle (5% DMSO, 10% PEG200, 85% water for injection (v/v)).
Baseline haemodynamic parameters were recorded. Animals (n=6/group) were randomised to receive a primed infusion of either vehicle or PDE5 Inhibitor for a period of 60 min. At this point, these groups were further randomised to receive either (i) vehicle or PDE5 inhibitor alone, (ii) candesartan alone or (iii) a combination of candesartan and PDE5 inhibitor. Changes in mean arterial pressure were monitored during the study period.

Row | SMILES | Change in mean arterial pressure from vehicle | fall in MAP
1 | CCOc1nc2cccc(C(=O)O)c2n1Cc1ccc(-c2ccccc2-c2nnn[nH]2)cc1 [candesartan] | −3.2 mmHg | 3.2 mmHg
2 | CCc1c2nc(-c3cc(S(=O)(=O)N4CCN(CC)CC4)cnc3OCCOC)[nH]c(=O)c2nn1Cc1ccccn1 [PDE5 inhibitor, 3-ethyl-5-[5-(4-ethylpiperazin-1-ylsulphonyl)-2-(2-methoxyethoxy)pyridin-3-yl]-2 (pyridin-2-yl)methyl-2,6-dihydro-7H-pyrazolo[4,3-d]pyrimidin-7-one] | −7.4 mmHg | 7.4 mmHg
